Data as given in patent US20240181093A1 (ADENOBIO N.V, priority 2012, published 2024).
Several values for one entry are separate records, joined by “and”; a condition that tells them apart may be missing. Equal values may be shown once. Marks after values point to notes of the source that are not given here.

Key:
[1] = test system: patients; conditions: cited from earlier work
[2] = test system: coronary hyperaemia; conditions: cited from earlier work
[3] = test system: Left anterior descending coronary artery (LAD); assay: Transthoracic doppler echocardiography (TTDE) flow velocity measurements at rest and under pharmacologic stress; assay type: in vivo, human; conditions: for Average Optimal Effect Duration: combined with adenosine bolus
Description: The value of absolute coronary blood flow (CBF) may be substituted by the value of CBF velocity (peak and mean velocities). […] Given that blood flow=velocity flow×cross section, if cross section is constant, velocity variations reflect blood flow variations.
TTDE is a non invasive approach conducted under the same conditions as for thallium or technetium scintigraphy (intravenous injection) and another way to study Coronary Flow Reserve (CFR).

[4] = Table 1: same coronary patient, 5 studies, second data of cell, adenosine 140 μg/kg/min 2 minute infusion, combination 30 second IV bolus
[5] = bolus independently of the patient's weight

## Nc1ncnc2c1ncn2[C@@H]1O[C@H](CO)[C@@H](O)[C@H]1O [Adenosine, adenosine]
[1]; adenosine infusion, most frequently reported
  adverse reaction: flushing: 44%
[1]; adenosine infusion
  Other side effects, incidence: below 10%
  adverse reaction: chest pain or chest discomfort: 40%
  adverse reaction: dyspnoea: 28%
  adverse reaction: gastrointestinal discomfort: 13%
  adverse reaction: headache: 18%
  adverse reaction: throat or neck or jaw discomfort: 15%
[2]; infusion
  time to near-maximal vasodilatation, on average: 60 s
[3]; Table 1: same coronary patient
  DOE = Duration of optimal effect: 60 to 90 s
  RBL = Return to base line: 40 to 50 s
  TTP = Time to peak: 40 to 50 s
[3]; [4]
  MV = Mean Velocity, under stress conditions: 78 cm/s and 80 cm/s and 82 cm/s and 75 cm/s and 74 cm/s
  PV = Peak Velocity, under stress conditions: 108 cm/sec and 96 cm/sec and 98 cm/sec and 105 cm/sec
[3]; Table 2: three different coronary patients, one line per patient, listed as St. Adenosine
  CR (based on MV): 2.12 and 2.36 and 2.88
[3]; Table 2: three different coronary patients, one line per patient, second data of cell, St. adenosine 140 μg/kg/min infusion about 2 minutes, combination IV 30 second bolus
  MV (mean velocity), under stress conditions: 50 cm/s and 33 cm/s and 75 cm/s

## OCCN(CCO)c1nc(N2CCCCC2)c2nc(N(CCO)CCO)nc(N3CCCCC3)c2n1 [Dipyridamole, dipyridamole]
[2]; in vivo
  duration of peak of activity: 20 to 30 min
[3]; Dipyridamole dose 9 mg, regardless of the dose of adenosine
  Average Optimal Effect Duration: 30 to 40 s
[3]; Dipyridamole dose 10 mg, regardless of the dose of adenosine
  Average Optimal Effect Duration: 40 to 50 s
[3]; Dipyridamole dose 12 mg, regardless of the dose of adenosine
  Average Optimal Effect Duration: 40 to 90 s
[3]; Dipyridamole dose 14 mg, prolongs side effects when they occur
  Average Optimal Effect Duration: 60-100** sec
[3]; alone as a 12 mg or 14 mg bolus
  coronary effect and side effect: no coronary effect and no side effect
[3]; injected as a bolus alone at the dose of 12 mg (n=5 patients)
  coronary effect or symptom: does not induce any significant coronary effect or symptom

## Nc1nc(N/N=C/C2CCCCC2)nc2c1ncn2[C@@H]1O[C@H](CO)[C@@H](O)[C@H]1O [binodenoson]
[2]; in vivo
  duration of action: 10 ± 6 min

## CNC(=O)c1cnn(-c2nc(N)c3ncn([C@@H]4O[C@H](CO)[C@@H](O)[C@H]4O)c3n2)c1 [regadenoson]
[1]; in vivo
  side effects as compared to the reference drug Adenoscan (adenosine): increase in dyspnea, headache and gastrointestinal disorders
[2]; [5]
  efficacy and tolerance at 500 μg: same efficacy as 400 μg but tolerance is worst
  efficacy threshold dose in many but not all patients: 300 µg
[2]; bolus independently of the patient's weight, marketed dose
  dose efficient in all patients: 400 µg
[2]; in vivo
  time after which coronary hyperaemia is induced: 30 s
